One test deals with T1, PD-1/PD-L1 (Homo sapiens, UniProt Q9NZQ7).
T1 construct: made in house; host or cells: HEK293T
T1 sequence (Q9NZQ7 with tags, fused parts or gaps): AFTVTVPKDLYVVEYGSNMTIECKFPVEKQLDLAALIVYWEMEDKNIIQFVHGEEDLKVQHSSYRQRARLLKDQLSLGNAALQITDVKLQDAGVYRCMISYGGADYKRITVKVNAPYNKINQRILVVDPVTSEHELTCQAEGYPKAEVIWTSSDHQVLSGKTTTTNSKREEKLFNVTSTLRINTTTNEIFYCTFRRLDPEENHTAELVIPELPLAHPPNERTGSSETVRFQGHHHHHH
The test is described as follows: PD-1/PD-L1 Homogenous Time-Resolved Fluorescence (HTRF) binding assay. As to conditions: PD-L1-His 10 nM, PD-1-Ig 20 nM; numeric IC50; read-out: Range or IC50. The gist of the method: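 Compounds are tested for blocking the PD-1/PD-L1 interaction in dPBS supplemented with 0.1% BSA and 0.05% (v/v) Tween-20. Tagged proteins are detected with Eu-cryptate anti-Ig and APC anti-His at 1 and 20 nM final.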
Broadly, the IC50 is the concentration that inhibits the measured activity by half. For `Cc1c(COc2cc(OCc3cncc(C#N)c3)c(CN3CCCC[C@H]3C(=O)O)cc2Cl)cccc1-c1cccc(CN(C)CCN2CCS(=O)(=O)CC2)c1C` [Example 4079, (S)-1-(5-chloro-2-((5-cyanopyridin-3-yl)methoxy)-4-((3′-(((2-(1,1-dioxidothiomorpholino)ethyl)(methyl)amino)methyl)-2,2′-dimethyl-[1,1′-biphenyl]-3-yl)methoxy)benzyl)piperidine-2-carboxylic Acid], the concentration for half-maximal inhibition (IC50) turned out to be 73 nM.

Still in this test, the particulars now being: PD-L1-His 10 nM, PD-1-Ig 20 nM; value given as range class; read-out: Range or IC50.
For `Cc1c(CCCCN2CC[C@@H](O)C2)cccc1-c1cccc(COc2cc(OCc3cncc(C#N)c3)c(CN3CCN(C(=O)OC(C)(C)C)C[C@H]3C(=O)O)cc2Cl)c1C` [Example 4068, (S)-4-(tert-butoxycarbonyl)-1-(5-chloro-2-((5-cyanopyridin-3-yl)methoxy)-4-((3′-(4-((R)-3-hydroxypyrrolidin-1-yl)butyl)-2,2′-dimethyl-[1,1′-biphenyl]-3-yl)methoxy)benzyl)piperazine-2-carboxylic Acid], the half-maximal inhibitory concentration (IC50) was in the range of 0.21 to 10 nM.

For `Cc1c(CCCCN2CC[C@@H](O)C2)cccc1-c1cccc(COc2cc(OCc3cncc(C#N)c3)c(CN[C@@H](CN)C(=O)O)cc2Cl)c1C` [Example 4069, (S)-3-amino-2-((5-chloro-2-((5-cyanopyridin-3-yl)methoxy)-4-((3′-(4-((R)-3-hydroxypyrrolidin-1-yl)butyl)-2,2′-dimethyl-[1,1′-biphenyl]-3-yl)methoxy)benzyl)amino)propanoic Acid], the IC50 was 0.21 to 10 nM. On to `Cc1c(CCCCN2CC[C@@H](O)C2)cccc1-c1cccc(COc2cc(OCc3cncc(C#N)c3)c(CN3CCNC[C@H]3C(=O)O)cc2Cl)c1C` [Example 4070, (S)-1-(5-chloro-2-((5-cyanopyridin-3-yl)methoxy)-4-((3′-(4-((R)-3-hydroxypyrrolidin-1-yl)butyl)-2,2′-dimethyl-[1,1′-biphenyl]-3-yl)methoxy)benzyl)piperazine-2-carboxylic Acid], for which the concentration for half-maximal inhibition (IC50) lay in the range of 0.21 to 10 nM. On the same count and under the same terms, the value for `Cc1c(COc2cc(OCc3cncc(C#N)c3)c(CNC(CO)CO)cc2Cl)cccc1-c1cccc(CN(C)CCN2CCS(=O)(=O)CC2)c1C` [Example 4080, 5-((4-chloro-2-(((1,3-dihydroxypropan-2-yl)amino)methyl)-5-((3′-(((2-(1,1-dioxidothiomorpholino)ethyl)(methyl)amino)methyl)-2,2′-dimethyl-[1,1′-biphenyl]-3-yl)methoxy)phenoxy)methyl)nicotinonitrile] was 0.21 to 10 nM; that for `Cc1c(COc2cc(OCc3cncc(C#N)c3)c(CN[C@@](C)(CO)C(=O)O)cc2Cl)cccc1-c1cccc(CN(C)CCN2CCS(=O)(=O)CC2)c1C` [Example 4081, (S)-2-((5-chloro-2-((5-cyanopyridin-3-yl)methoxy)-4-((3′-(((2-(1,1-dioxidothiomorpholino)ethyl)(methyl)amino)methyl)-2,2′-dimethyl-[1,1′-biphenyl]-3-yl)methoxy)benzyl)amino)-3-hydroxy-2-methylpropanoic Acid] was 10 to 100 nM. Still for that read-out and setting: the value for `Cc1c(COc2cc(OCc3cncc(C#N)c3)c(CNC(C)(CO)CO)cc2Cl)cccc1-c1cccc(CN(C)CCN2CCS(=O)(=O)CC2)c1C` [Example 4082, 5-((4-chloro-2-(((1,3-dihydroxy-2-methylpropan-2-yl)amino)methyl)-5-((3′-(((2-(1,1-dioxidothiomorpholino)ethyl)(methyl)amino)methyl)-2,2′-dimethyl-[1,1′-biphenyl]-3-yl)methoxy)phenoxy)methyl)nicotinonitrile] was 0.21 to 10 nM. With `Cc1c(COc2cc(OCc3cncc(C#N)c3)c(CNC(CO)(CO)CO)cc2Cl)cccc1-c1cccc(CN(C)CCN2CCS(=O)(=O)CC2)c1C` [Example 4083, 5-((4-chloro-2-(((1,3-dihydroxy-2-(hydroxymethyl)propan-2-yl)amino)methyl)-5-((3′-(((2-(1,1-dioxidothiomorpholino)ethyl)(methyl)amino)methyl)-2,2′-dimethyl-[1,1′-biphenyl]-3-yl)methoxy)phenoxy)methyl)nicotinonitrile], the IC50 fell in the range of 0.21 to 10 nM. Still for that read-out and setting: the value for `Cc1c(COc2cc(OCc3cncc(C#N)c3)c(CN(CCO)CCO)cc2Cl)cccc1-c1cccc(CN(C)CCN2CCS(=O)(=O)CC2)c1C` [Example 4084, 5-((2-((bis(2-hydroxyethyl)amino)methyl)-4-chloro-5-((3′-(((2-(1,1-dioxidothiomorpholino)ethyl)(methyl)amino)methyl)-2,2′-dimethyl-[1,1′-biphenyl]-3-yl)methoxy)phenoxy)methyl)nicotinonitrile] was 10 to 100 nM; that for `Cc1c(COc2cc(OCc3cncc(C#N)c3)c(CN(CCO)CCCO)cc2Cl)cccc1-c1cccc(CN(C)CCN2CCS(=O)(=O)CC2)c1C` [Example 4085, 5-((4-chloro-5-((3′-(((2-(1,1-dioxidothiomorpholino)ethyl)(methyl)amino)methyl)-2,2′-dimethyl-[1,1′-biphenyl]-3-yl)methoxy)-2-(((2-hydroxyethyl)(3-hydroxypropyl)amino)methyl)phenoxy)methyl)nicotinonitrile] was 10 to 100 nM. As to `Cc1cc(OCc2cccc(-c3cccc(OCCCN4CC[C@@H](O)C4)c3C)c2C)cc(OCc2cncc(C#N)c2)c1CN1CCCC[C@H]1C(=O)O` [Example 4086, (S)-1-(2-((5-cyanopyridin-3-yl)methoxy)-4-((3′-(3-((R)-3-hydroxypyrrolidin-1-yl)propoxy)-2,2′-dimethyl-[1,1′-biphenyl]-3-yl)methoxy)-6-methylbenzyl)piperidine-2-carboxylic Acid], the concentration for half-maximal inhibition (IC50) was 0.21 to 10 nM. Still for that read-out and setting: the same measure for `Cc1cc(OCc2cccc(-c3cccc(OCCCN4CC[C@@H](O)C4)c3C)c2C)cc(OCc2cncc(C#N)c2)c1CNC(CO)CO` [Example 4087, (R)-5-((2-(((1,3-dihydroxypropan-2-yl)amino)methyl)-5-((3′-(3-(3-hydroxypyrrolidin-1-yl)propoxy)-2,2′-dimethyl-[1,1′-biphenyl]-3-yl)methoxy)-3-methylphenoxy)methyl)nicotinonitrile]: 0.21 to 10 nM; for `Cc1cc(OCc2cccc(-c3cccc(OCCCN4CC[C@@H](O)C4)c3C)c2C)cc(OCc2cncc(C#N)c2)c1CNC(C)(CO)CO` [Example 4088, (R)-5-((2-(((1,3-dihydroxy-2-methylpropan-2-yl)amino)methyl)-5-((3′-(3-(3-hydroxypyrrolidin-1-yl)propoxy)-2,2′-dimethyl-[1,1′-biphenyl]-3-yl)methoxy)-3-methylphenoxy)methyl)nicotinonitrile]: 0.21 to 10 nM; for `Cc1cc(OCc2cccc(-c3cccc(OCCCN4CC[C@@H](O)C4)c3C)c2C)cc(OCc2cncc(C#N)c2)c1CNC(CO)(CO)CO` [Example 4089, (R)-5-((2-(((1,3-dihydroxy-2-(hydroxymethyl)propan-2-yl)amino)methyl)-5-((3′-(3-(3-hydroxypyrrolidin-1-yl)propoxy)-2,2′-dimethyl-[1,1′-biphenyl]-3-yl)methoxy)-3-methylphenoxy)methyl)nicotinonitrile]: 0.21 to 10 nM.

Turning to `Cc1cc(OCc2cccc(-c3cccc(OCCCN4CC[C@@H](O)C4)c3C)c2C)cc(OCc2cncc(C#N)c2)c1CN(CCO)CCO` [Example 4090, (R)-5-((2-((bis(2-hydroxyethyl)amino)methyl)-5-((3′-(3-(3-hydroxypyrrolidin-1-yl)propoxy)-2,2′-dimethyl-[1,1′-biphenyl]-3-yl)methoxy)-3-methylphenoxy)methyl)nicotinonitrile], the half-inhibitory concentration (IC50) fell in the range of 0.21 to 10 nM. Consider `Cc1cc(OCc2cccc(-c3cccc(OCCCN4CC[C@@H](O)C4)c3C)c2C)cc(OCc2cncc(C#N)c2)c1CN[C@@](C)(CO)C(=O)O` [Example 4091, (S)-2-((2-((5-cyanopyridin-3-yl)methoxy)-4-((3′-(3-((R)-3-hydroxypyrrolidin-1-yl)propoxy)-2,2′-dimethyl-[1,1′-biphenyl]-3-yl)methoxy)-6-methylbenzyl)amino)-3-hydroxy-2-methylpropanoic Acid], for which the half-maximal inhibitory concentration (IC50) was 0.21 to 10 nM.

Consider `Cc1c(COc2cc(OCc3cncc(C#N)c3)c(CN(C)[C@@](C)(CO)C(=O)O)c(C)c2Cl)cccc1-c1cccc(OCCCN2CC[C@@H](O)C2)c1C` [Example 4100, (S)-2-((3-chloro-6-((5-cyanopyridin-3-yl)methoxy)-4-((3′-(3-((R)-3-hydroxypyrrolidin-1-yl)propoxy)-2,2′-dimethyl-[1,1′-biphenyl]-3-yl)methoxy)-2-methylbenzyl)(methyl)amino)-3-hydroxy-2-methylpropanoic Acid], for which the IC50 lay in the range of 0.21 to 10 nM.

Take `Cc1c(COc2cc(OCc3cncc(C#N)c3)c(CN3CCCC[C@H]3C(=O)O)c(C)c2Cl)cccc1-c1cccc(OCCCN2CC[C@@H](O)C2)c1C` [Example 4101, (S)-1-(3-chloro-6-((5-cyanopyridin-3-yl)methoxy)-4-((3′-(3-((R)-3-hydroxypyrrolidin-1-yl)propoxy)-2,2′-dimethyl-[1,1′-biphenyl]-3-yl)methoxy)-2-methylbenzyl)piperidine-2-carboxylic Acid]: the IC50 lay within 0.21 to 10 nM.

Turning to `Cc1c(COc2cc(OCc3cncc(C#N)c3)c(CNC(CO)CO)c(C)c2Cl)cccc1-c1cccc(OCCCN2CC[C@@H](O)C2)c1C` [Example 4102, (R)-5-((4-chloro-2-(((1,3-dihydroxypropan-2-yl)amino)methyl)-5-((3′-(3-(3-hydroxypyrrolidin-1-yl)propoxy)-2,2′-dimethyl-[1,1′-biphenyl]-3-yl)methoxy)-3-methylphenoxy)methyl)nicotinonitrile], the IC50 lay within 0.21 to 10 nM. Regarding `Cc1c(COc2cc(OCc3cncc(C#N)c3)c(CNC(C)(CO)CO)c(C)c2Cl)cccc1-c1cccc(OCCCN2CC[C@@H](O)C2)c1C` [Example 4103, (R)-5-((4-chloro-2-(((1,3-dihydroxy-2-methylpropan-2-yl)amino)methyl)-5-((3′-(3-(3-hydroxypyrrolidin-1-yl)propoxy)-2,2′-dimethyl-[1,1′-biphenyl]-3-yl)methoxy)-3-methylphenoxy)methyl)nicotinonitrile], the IC50 was in the range of 0.21 to 10 nM.

The values above are taken from US10745382B2 (BRISTOL-MYERS SQUIBB COMPANY, priority 2015, dated 2020).
